Data from patent publication US4260630A, “Skin diseases” (priority 1977, dated 1981).

Experiments:
cutaneous tissue = conditions: in vivo; cited from earlier work
Saccharomyces cerevisiae [1] = experiment: Repair of photoinduced lesions in yeast (repair mutants, agar holding); type: cell-based; conditions: wild-type cells
Description: Biophys. Acta, 395, 393-404.
Consequently, it appears that the excision repair pathway in wild type and rad9-4 cells is essential in AHR for both compounds.

DNA = conditions: cited from earlier work
[2] = Comparison of activity with compounds of analogous structure; conditions: comparison with the compounds of the invention
Description: V. In order to compare the activity of the compounds of the invention with compounds having an analogous structure

Saccharomyces cerevisiae [3] = experiment: Induction of nuclear back mutations (his- to His+) in yeast; conditions: vs 3-CPs or angelicin plus 365 nm light
Protocol: A wild-type strain 211-1aM (29) of Saccharomyces cerivisiae was used, and the following mutants derived from it: S24-12c rad2-20 deficient in excision repair and S25-13b rad9-4 likely to be blocked in a recombinational repair pathway; a double mutant S 2057NL-24 rad2-20 -rad9-4 clone B was obtained by tetrad analysis of a heterozygote [formula]
The media and culture conditions used were as described in D. Averbeck, E. Moustacchi, (1975) Biochim. Biophys. Acta, 395, 393-404.
10^6 cells/ml in saline (0.9% NaCl) were treated for 30 minutes with the drugs at a final concentration of 10 μg/ml and 1.2% ethanol present.
A Philips HPW 125 culot Edison high pressure mercury lamp was used with maximal output at the wavelength 365 nm. The irradiation dose measured by actinometry was 10 J/m^2 per sec., using the following set up: 10 ml of actinometer solution (or the cell suspension, usually 1×10^6 cells/ml), stirred continuously by a magnetic stirrer, were irradiated at room temperature in an open Petri dish of 10 cm diameter at a distance of 10 cm from the center of the light bulb which was mounted horizontally. A 2 mm thick pyrex glass sheet (20×25 cm) was placed in the center of the light beam to cut out UV light of wavelength below 340 nm. […]

[4] = system: skin of homozygote albino mice strain XVII nc/Z; experiment: Chronic topical application on the ears of mice plus 365 nm UV irradiation (tumors, skin reactions); type: in vivo
Protocol: The experiments were effected on groups of 40 mice, male and female.
After 115 topical applications of psoralen, followed each time by 10 minutes of irradiation (cumulative doses of 2.07×10^6 J/m^2), 100% of the animals developed a tumor; 50% having tumors on two ears.
3-CPs was also tested intraperitoneally (36 injections of 0.4 mg each over a period of 7 weeks).
In all these experiments the U.V. lamp was of the type of HPW 125 W, manufactured by Philips.

[5] = 115 topical applications, cumulative doses 2.07×10^6 J/m^2

For 3,4-dibenzo-5,8-dimethylpsoralen, the photosensitizing activity (cutaneous tissue) is listed as “inactive or to induce very weak photosensitivity”.
In the case of O=c1ccc2ccc3occc3c2o1 [angelicin], the “kinetics of agar holding recovery (AHR)” value (Saccharomyces cerevisiae [1]) is given as “same kinetics of AHR” and the “binding to DNA and RNA” value (DNA) is given as “bind equally well to DNA and RNA”.
In the case of Cc1cc2cc3c4c(c(=O)oc3c(C)c2o1)CCCC4 [3,4-cyclohexeno-5',8-dimethylpsoralen], the photosensitizing activity (cutaneous tissue) is given as “inactive or to induce very weak photosensitivity”.
For CC(C)(C)OC(=O)c1cc2cc3ccoc3cc2oc1=O [psoralen 3-t-butylcarboxylate], the activity [2] was “inactive”.
In the case of Cc1cc2cc3ccoc3cc2oc1=O [3-methylpsoralen], the photosensitizing activity (cutaneous tissue) is listed as “inactive or to induce very weak photosensitivity”.
In the case of Cc1cc2cc3cc(C)c(=O)oc3c(C)c2o1 [3,5',8-trimethylpsoralen], the photosensitizing activity (cutaneous tissue) is listed as “inactive or to induce very weak photosensitivity”.
In the case of O=c1ccc2cc3ccoc3cc2o1 [psoralen], the “effectiveness in inducing nuclear back mutations (his- to His+) relative to monofunctional furocoumarins or 254 nm UV alone” value (Saccharomyces cerevisiae [3]) is reported as “at least 10 fold”, the “kinetics of agar holding recovery (AHR)” value (Saccharomyces cerevisiae [1]) is reported as “same kinetics of AHR” and the “animals developing a tumor on ears” value ([4]; 24 applications, cumulative dose 4.5×10^5 J/m^2) is reported as 3%. The “animals developing a tumor on ears” value [4, 5] was 100%, the “animals having tumors on two ears” value [4, 5] was 50% and the cutaneous reactions ([4]; chronic topical, two ears, 365 nm UV) was “significant cutaneous reactions, such as an erythema, followed by intensive chronic inflammation even followed by necrosis”. The “dose dependence of tumor development on ears” value ([4]; mouse, in vivo) was “dose dependent” and the photosensitizing activity (cutaneous tissue) was “most effective photo-sensitizers”.
For Cc1cc2cc3c(C)c(C)c(=O)oc3c(C)c2o1 [3,4,5',8-tetramethylpsoralen], the photosensitizing activity (cutaneous tissue) is listed as “inactive or to induce very weak photosensitivity”.
For Cc1cc2cc3c(C)cc(=O)oc3c(C)c2o1 [4,5',8-trimethylpsoralen], the “reactivity with DNA in vitro relative to 8-MOP” value (DNA; in vitro) is listed as “about 12 times more reactive”.
In the case of CCCCc1c(C)c2cc3cc(C)oc3c(C)c2oc1=O [3-n-butyl-4,5',8-trimethylpsoralen], the photosensitizing activity (cutaneous tissue) is listed as “inactive or to induce very weak photosensitivity”.
